Four molecules from paper PMC4365076, “The phage growth limitation system in Streptomyces coelicolor A(3)2 is a toxin/antitoxin system, comprising enzymes with DNA methyltransferase, protein kinase and ATPase activity” (Virology, 2015) can be followed below.

Data set [1] addresses T1, PglY (His6–PglY) (Streptomyces coelicolor, UniProt O86682).
T1 construct: ~160 kDa band, MALDI-TOF identified; Walker A GSFGSGKS at 75–82
T1 sequence (O86682 1-1294): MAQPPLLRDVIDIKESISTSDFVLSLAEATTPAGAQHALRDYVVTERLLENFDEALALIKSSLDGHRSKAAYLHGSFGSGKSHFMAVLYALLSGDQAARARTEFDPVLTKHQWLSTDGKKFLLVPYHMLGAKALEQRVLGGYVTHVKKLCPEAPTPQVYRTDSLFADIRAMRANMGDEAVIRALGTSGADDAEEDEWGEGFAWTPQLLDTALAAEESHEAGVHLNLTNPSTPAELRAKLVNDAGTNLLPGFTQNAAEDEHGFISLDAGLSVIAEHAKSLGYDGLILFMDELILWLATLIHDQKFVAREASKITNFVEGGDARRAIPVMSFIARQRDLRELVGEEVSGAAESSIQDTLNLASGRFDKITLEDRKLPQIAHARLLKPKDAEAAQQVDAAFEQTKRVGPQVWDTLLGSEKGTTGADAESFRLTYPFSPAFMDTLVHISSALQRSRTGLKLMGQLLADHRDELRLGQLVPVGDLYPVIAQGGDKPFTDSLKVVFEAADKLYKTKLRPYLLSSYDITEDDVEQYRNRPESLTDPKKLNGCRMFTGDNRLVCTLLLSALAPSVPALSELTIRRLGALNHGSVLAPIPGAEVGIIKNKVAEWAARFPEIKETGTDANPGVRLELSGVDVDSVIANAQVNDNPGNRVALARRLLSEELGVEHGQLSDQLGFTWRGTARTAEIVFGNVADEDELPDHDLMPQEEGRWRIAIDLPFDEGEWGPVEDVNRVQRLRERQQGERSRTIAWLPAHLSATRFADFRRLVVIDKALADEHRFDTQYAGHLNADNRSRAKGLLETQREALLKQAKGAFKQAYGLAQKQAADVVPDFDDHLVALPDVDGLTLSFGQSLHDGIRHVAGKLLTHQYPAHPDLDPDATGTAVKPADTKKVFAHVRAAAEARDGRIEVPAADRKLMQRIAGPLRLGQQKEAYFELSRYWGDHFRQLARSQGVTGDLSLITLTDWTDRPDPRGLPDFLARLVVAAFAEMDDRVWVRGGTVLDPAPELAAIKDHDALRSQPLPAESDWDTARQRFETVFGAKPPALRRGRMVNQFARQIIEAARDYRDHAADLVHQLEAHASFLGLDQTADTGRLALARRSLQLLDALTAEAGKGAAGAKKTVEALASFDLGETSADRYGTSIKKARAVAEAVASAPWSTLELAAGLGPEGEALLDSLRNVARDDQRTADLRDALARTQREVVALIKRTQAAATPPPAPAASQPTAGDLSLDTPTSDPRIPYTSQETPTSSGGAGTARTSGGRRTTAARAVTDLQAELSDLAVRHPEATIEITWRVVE
Kind of data set: inhibition of ATP hydrolysis, Pi release, malachite green. The data set is classed as biochemical. The settings on record: 1–3 mM ADP-NP against 1–3 mM ATP; 30 °C, pH 8.0, 10 mM MgCl2.

Data set [2] deals with T2, PglX (PglX–His6) (Streptomyces coelicolor, UniProt Q8CJM2).
T2 construct: NPPY motif at 378–381
T2 sequence (Q8CJM2 1-1210): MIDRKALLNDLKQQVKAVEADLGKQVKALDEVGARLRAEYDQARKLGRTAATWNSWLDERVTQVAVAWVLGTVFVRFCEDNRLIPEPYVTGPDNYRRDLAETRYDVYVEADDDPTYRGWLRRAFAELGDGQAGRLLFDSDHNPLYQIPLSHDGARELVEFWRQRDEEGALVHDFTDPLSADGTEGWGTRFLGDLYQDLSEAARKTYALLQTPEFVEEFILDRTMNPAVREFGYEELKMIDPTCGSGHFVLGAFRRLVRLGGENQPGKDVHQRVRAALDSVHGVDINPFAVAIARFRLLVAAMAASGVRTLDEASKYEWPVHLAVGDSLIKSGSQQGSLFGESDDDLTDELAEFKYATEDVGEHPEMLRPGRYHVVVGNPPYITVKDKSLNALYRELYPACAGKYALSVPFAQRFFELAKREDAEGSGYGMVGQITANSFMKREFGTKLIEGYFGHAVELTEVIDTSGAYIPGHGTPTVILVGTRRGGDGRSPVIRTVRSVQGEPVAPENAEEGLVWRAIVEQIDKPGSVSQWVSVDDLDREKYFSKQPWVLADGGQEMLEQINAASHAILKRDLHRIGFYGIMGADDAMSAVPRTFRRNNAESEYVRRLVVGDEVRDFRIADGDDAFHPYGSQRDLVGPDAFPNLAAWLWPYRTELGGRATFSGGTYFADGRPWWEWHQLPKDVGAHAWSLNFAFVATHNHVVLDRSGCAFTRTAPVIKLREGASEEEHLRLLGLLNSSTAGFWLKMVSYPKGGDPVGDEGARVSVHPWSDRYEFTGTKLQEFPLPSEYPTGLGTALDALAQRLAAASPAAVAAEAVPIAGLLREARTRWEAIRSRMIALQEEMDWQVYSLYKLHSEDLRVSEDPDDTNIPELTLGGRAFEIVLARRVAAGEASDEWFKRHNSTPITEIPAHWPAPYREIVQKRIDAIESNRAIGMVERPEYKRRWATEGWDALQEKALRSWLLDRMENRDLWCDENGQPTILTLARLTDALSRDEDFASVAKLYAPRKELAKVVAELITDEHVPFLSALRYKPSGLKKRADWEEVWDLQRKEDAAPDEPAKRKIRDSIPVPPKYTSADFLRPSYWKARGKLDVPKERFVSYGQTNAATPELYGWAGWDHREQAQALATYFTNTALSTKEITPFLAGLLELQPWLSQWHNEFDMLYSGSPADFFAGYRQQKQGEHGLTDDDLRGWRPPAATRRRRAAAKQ
Put plainly: 3H-methyl incorporation into DNA, scintillation counting. The data set is classed as biochemical. The following applies: 12 μM labelled compound, phage ϕC31 DNA co-substrate, 1 mM EDTA, pH 7.5, 30 °C; partially purified enzyme.

Substrate in data set [3]: Nc1ncnc2c1ncn2[C@@H]1O[C@H](COP(=O)(O)OP(=O)(O)OP(=O)(O)O)[C@@H](O)[C@H]1O
Put plainly: Pi release, malachite green. The format is biochemical, Streptomyces coelicolor. The settings on record: 30 °C, 40 mM HEPES pH 8.0, 10 mM MgCl2, 10 mM DTT, 0.1 mg/ml BSA.

Consider `Nc1ncnc2c1ncn2[C@@H]1O[C@H](COP(=O)(O)OP(=O)(O)NP(=O)(O)O)[C@@H](O)[C@H]1O` [ADP-NP], for which the “inhibition of ATP hydrolysis, Pi release, malachite green” value in data set [1] was “severely inhibited rate of hydrolysis of ATP, indicative of ADP-NP binding and inhibition of activity”.

As for `C[S+](CC[C@H](N)C(=O)O)C[C@H]1O[C@@H](n2cnc3c(N)ncnc32)[C@H](O)[C@@H]1O` (stereo partly shown) [AdoMet], in data set [2], the “3H-methyl incorporation into DNA, scintillation counting” value was “incorporation of label into TCA precipitable material was dependent on DNA addition”.

B1: PglY (His6–PglY) (Streptomyces coelicolor A3(2)) (protein)
chain: MAQPPLLRDVIDIKESISTSDFVLSLAEATTPAGAQHALRDYVVTERLLENFDEALALIKSSLDGHRSKAAYLHGSFGSGKSHFMAVLYALLSGDQAARARTEFDPVLTKHQWLSTDGKKFLLVPYHMLGAKALEQRVLGGYVTHVKKLCPEAPTPQVYRTDSLFADIRAMRANMGDEAVIRALGTSGADDAEEDEWGEGFAWTPQLLDTALAAEESHEAGVHLNLTNPSTPAELRAKLVNDAGTNLLPGFTQNAAEDEHGFISLDAGLSVIAEHAKSLGYDGLILFMDELILWLATLIHDQKFVAREASKITNFVEGGDARRAIPVMSFIARQRDLRELVGEEVSGAAESSIQDTLNLASGRFDKITLEDRKLPQIAHARLLKPKDAEAAQQVDAAFEQTKRVGPQVWDTLLGSEKGTTGADAESFRLTYPFSPAFMDTLVHISSALQRSRTGLKLMGQLLADHRDELRLGQLVPVGDLYPVIAQGGDKPFTDSLKVVFEAADKLYKTKLRPYLLSSYDITEDDVEQYRNRPESLTDPKKLNGCRMFTGDNRLVCTLLLSALAPSVPALSELTIRRLGALNHGSVLAPIPGAEVGIIKNKVAEWAARFPEIKETGTDANPGVRLELSGVDVDSVIANAQVNDNPGNRVALARRLLSEELGVEHGQLSDQLGFTWRGTARTAEIVFGNVADEDELPDHDLMPQEEGRWRIAIDLPFDEGEWGPVEDVNRVQRLRERQQGERSRTIAWLPAHLSATRFADFRRLVVIDKALADEHRFDTQYAGHLNADNRSRAKGLLETQREALLKQAKGAFKQAYGLAQKQAADVVPDFDDHLVALPDVDGLTLSFGQSLHDGIRHVAGKLLTHQYPAHPDLDPDATGTAVKPADTKKVFAHVRAAAEARDGRIEVPAADRKLMQRIAGPLRLGQQKEAYFELSRYWGDHFRQLARSQGVTGDLSLITLTDWTDRPDPRGLPDFLARLVVAAFAEMDDRVWVRGGTVLDPAPELAAIKDHDALRSQPLPAESDWDTARQRFETVFGAKPPALRRGRMVNQFARQIIEAARDYRDHAADLVHQLEAHASFLGLDQTADTGRLALARRSLQLLDALTAEAGKGAAGAKKTVEALASFDLGETSADRYGTSIKKARAVAEAVASAPWSTLELAAGLGPEGEALLDSLRNVARDDQRTADLRDALARTQREVVALIKRTQAAATPPPAPAASQPTAGDLSLDTPTSDPRIPYTSQETPTSSGGAGTARTSGGRRTTAARAVTDLQAELSDLAVRHPEATIEITWRVVE
notes: ~160 kDa band, MALDI-TOF identified; Walker A GSFGSGKS at 75–82
For B1, the Michaelis constant (Km) in data set [3] is 0.5 mM.

B2: PglY (His6–PglY) (Streptomyces coelicolor A3(2); K81A/S82A) (protein)
chain: MAQPPLLRDVIDIKESISTSDFVLSLAEATTPAGAQHALRDYVVTERLLENFDEALALIKSSLDGHRSKAAYLHGSFGSGAAHFMAVLYALLSGDQAARARTEFDPVLTKHQWLSTDGKKFLLVPYHMLGAKALEQRVLGGYVTHVKKLCPEAPTPQVYRTDSLFADIRAMRANMGDEAVIRALGTSGADDAEEDEWGEGFAWTPQLLDTALAAEESHEAGVHLNLTNPSTPAELRAKLVNDAGTNLLPGFTQNAAEDEHGFISLDAGLSVIAEHAKSLGYDGLILFMDELILWLATLIHDQKFVAREASKITNFVEGGDARRAIPVMSFIARQRDLRELVGEEVSGAAESSIQDTLNLASGRFDKITLEDRKLPQIAHARLLKPKDAEAAQQVDAAFEQTKRVGPQVWDTLLGSEKGTTGADAESFRLTYPFSPAFMDTLVHISSALQRSRTGLKLMGQLLADHRDELRLGQLVPVGDLYPVIAQGGDKPFTDSLKVVFEAADKLYKTKLRPYLLSSYDITEDDVEQYRNRPESLTDPKKLNGCRMFTGDNRLVCTLLLSALAPSVPALSELTIRRLGALNHGSVLAPIPGAEVGIIKNKVAEWAARFPEIKETGTDANPGVRLELSGVDVDSVIANAQVNDNPGNRVALARRLLSEELGVEHGQLSDQLGFTWRGTARTAEIVFGNVADEDELPDHDLMPQEEGRWRIAIDLPFDEGEWGPVEDVNRVQRLRERQQGERSRTIAWLPAHLSATRFADFRRLVVIDKALADEHRFDTQYAGHLNADNRSRAKGLLETQREALLKQAKGAFKQAYGLAQKQAADVVPDFDDHLVALPDVDGLTLSFGQSLHDGIRHVAGKLLTHQYPAHPDLDPDATGTAVKPADTKKVFAHVRAAAEARDGRIEVPAADRKLMQRIAGPLRLGQQKEAYFELSRYWGDHFRQLARSQGVTGDLSLITLTDWTDRPDPRGLPDFLARLVVAAFAEMDDRVWVRGGTVLDPAPELAAIKDHDALRSQPLPAESDWDTARQRFETVFGAKPPALRRGRMVNQFARQIIEAARDYRDHAADLVHQLEAHASFLGLDQTADTGRLALARRSLQLLDALTAEAGKGAAGAKKTVEALASFDLGETSADRYGTSIKKARAVAEAVASAPWSTLELAAGLGPEGEALLDSLRNVARDDQRTADLRDALARTQREVVALIKRTQAAATPPPAPAASQPTAGDLSLDTPTSDPRIPYTSQETPTSSGGAGTARTSGGRRTTAARAVTDLQAELSDLAVRHPEATIEITWRVVE
notes: as for B1
With B2, in data set [3] (Walker A double mutant), the Michaelis constant (Km) was 100 mM.

The Km is the substrate concentration at which the rate is half of its maximum.
